Reference: the supplement of paper PMC10307832

Legend:
Test in all cases: relative viability (nuclei count vs DMSO), 5 days (fraction); higher = more cells survive
EMC-BAC-2 = tested on: EMC-BAC-2
Outline: (§1)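 The day after seeding in 1536-well plates, lung cancer cell lines were treated by pin tool with a single drug, or with a fixed anchor-drug dose together with five library-drug doses (not always all listed) in √10 steps. After 5 days, a combined fix-and-stain solution (final 0.05% Triton X-100, 1% formaldehyde, 1 ug/ml Hoechst) was added. Nuclei counted on 4× images gave relative viability as treated counts over vehicle counts, reported as the median of duplicate plates.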

NCI-H1623 = tested on: NCI-H1623
Outline: as §1

NCI-H1395 = tested on: NCI-H1395
Outline: as §1

HCC-366 = tested on: HCC-366
Outline: as §1

HCC-78 = tested on: HCC-78
Outline: as §1

LCLC-97TM1 = tested on: LCLC-97TM1
Outline: as §1

A549 = tested on: A549
Outline: as §1

IA-LM = tested on: IA-LM
Outline: as §1

Calu-6 = tested on: Calu-6
Outline: as §1

NCI-H1703 = tested on: NCI-H1703
Outline: as §1

EBC-1 = tested on: EBC-1
Outline: as §1

NCI-H1648 = tested on: NCI-H1648
Outline: as §1

NCI-H1299 = tested on: NCI-H1299
Outline: as §1

CCNC(=O)c1noc(-c2cc(C(C)C)c(O)cc2O)c1-c1ccc(CN2CCOCC2)cc1 [Luminespib] + Cc1nc(Nc2ncc(C(=O)Nc3c(C)cccc3Cl)s2)cc(N2CCN(CCO)CC2)n1 [Dasatinib] (partner 0.075 µM)
relative viability (EMC-BAC-2; first compound 0.002 µM): 0.355
relative viability (EMC-BAC-2; first compound 0.006325 µM): 0.351
relative viability (EMC-BAC-2; first compound 0.02 µM): 0.312
relative viability (EMC-BAC-2; first compound 0.06325 µM): 0.395
relative viability (EMC-BAC-2; first compound 0.2 µM): 0.172
relative viability (NCI-H1623; first compound 0.002 µM): 0.525
relative viability (NCI-H1623; first compound 0.006325 µM): 0.384
relative viability (NCI-H1623; first compound 0.02 µM): 0.416
relative viability (NCI-H1623; first compound 0.06325 µM): 0.506
relative viability (NCI-H1623; first compound 0.2 µM): 0.406
relative viability (NCI-H1395; first compound 0.002 µM): 0.418
relative viability (NCI-H1395; first compound 0.006325 µM): 0.386
relative viability (NCI-H1395; first compound 0.02 µM): 0.366
relative viability (NCI-H1395; first compound 0.06325 µM): 0.33
relative viability (NCI-H1395; first compound 0.2 µM): 0.309
relative viability (HCC-366; first compound 0.002 µM): 0.615
relative viability (HCC-366; first compound 0.006325 µM): 0.576
relative viability (HCC-366; first compound 0.02 µM): 0.652
relative viability (HCC-366; first compound 0.06325 µM): 0.0301
relative viability (HCC-366; first compound 0.2 µM): 0.0393
relative viability (HCC-78; first compound 0.002 µM): 0.373
relative viability (HCC-78; first compound 0.006325 µM): 0.251
relative viability (HCC-78; first compound 0.06325 µM): 0.455
relative viability (HCC-78; first compound 0.2 µM): 0.204
relative viability (LCLC-97TM1; first compound 0.002 µM): 0.884
relative viability (LCLC-97TM1; first compound 0.006325 µM): 0.721
relative viability (LCLC-97TM1; first compound 0.02 µM): 0.986
relative viability (LCLC-97TM1; first compound 0.06325 µM): 0.726
relative viability (LCLC-97TM1; first compound 0.2 µM): 0.106

CCNC(=O)c1noc(-c2cc(C(C)C)c(O)cc2O)c1-c1ccc(CN2CCOCC2)cc1 [Luminespib] + N=C(N)NC(=N)NCCc1ccccc1 [Phenformin] (partner 250 µM)
relative viability (EMC-BAC-2; first compound 0.002 µM): 0.529
relative viability (EMC-BAC-2; first compound 0.006325 µM): 0.48
relative viability (EMC-BAC-2; first compound 0.02 µM): 0.429
relative viability (EMC-BAC-2; first compound 0.06325 µM): 0.254
relative viability (EMC-BAC-2; first compound 0.2 µM): 0.175
relative viability (NCI-H1623; first compound 0.002 µM): 0.55
relative viability (NCI-H1623; first compound 0.006325 µM): 0.536
relative viability (NCI-H1623; first compound 0.02 µM): 0.493
relative viability (NCI-H1623; first compound 0.06325 µM): 0.407
relative viability (NCI-H1623; first compound 0.2 µM): 0.307
relative viability (NCI-H1395; first compound 0.002 µM): 0.448
relative viability (NCI-H1395; first compound 0.006325 µM): 0.401
relative viability (NCI-H1395; first compound 0.02 µM): 0.39
relative viability (NCI-H1395; first compound 0.06325 µM): 0.326
relative viability (NCI-H1395; first compound 0.2 µM): 0.335
relative viability (HCC-366; first compound 0.002 µM): 0.686
relative viability (HCC-366; first compound 0.006325 µM): 0.59
relative viability (HCC-366; first compound 0.02 µM): 0.697
relative viability (HCC-366; first compound 0.06325 µM): 0.0486
relative viability (HCC-366; first compound 0.2 µM): 0.0355
relative viability (A549; first compound 0.002 µM): 0.166
relative viability (A549; first compound 0.006325 µM): 0.132
relative viability (A549; first compound 0.02 µM): 0.0856
relative viability (A549; first compound 0.06325 µM): 0.0194
relative viability (A549; first compound 0.2 µM): 0.0225
relative viability (HCC-78; first compound 0.002 µM): 0.689
relative viability (HCC-78; first compound 0.006325 µM): 0.52
relative viability (HCC-78; first compound 0.06325 µM): 0.767
relative viability (HCC-78; first compound 0.2 µM): 0.257
relative viability (LCLC-97TM1; first compound 0.002 µM): 0.399
relative viability (LCLC-97TM1; first compound 0.006325 µM): 0.374
relative viability (LCLC-97TM1; first compound 0.02 µM): 0.426
relative viability (LCLC-97TM1; first compound 0.06325 µM): 0.428
relative viability (LCLC-97TM1; first compound 0.2 µM): 0.102

CCNC(=O)c1noc(-c2cc(C(C)C)c(O)cc2O)c1-c1ccc(CN2CCOCC2)cc1 [Luminespib] + O=C(c1cc(Cc2n[nH]c(=O)c3ccccc23)ccc1F)N1CCN(C(=O)C2CC2)CC1 [Olaparib] (partner 8 µM)
relative viability (EMC-BAC-2; first compound 0.002 µM): 0.489
relative viability (EMC-BAC-2; first compound 0.006325 µM): 0.482
relative viability (EMC-BAC-2; first compound 0.02 µM): 0.471
relative viability (EMC-BAC-2; first compound 0.06325 µM): 0.234
relative viability (EMC-BAC-2; first compound 0.2 µM): 0.242
relative viability (NCI-H1395; first compound 0.002 µM): 0.465
relative viability (NCI-H1395; first compound 0.006325 µM): 0.454
relative viability (NCI-H1395; first compound 0.02 µM): 0.427
relative viability (NCI-H1395; first compound 0.06325 µM): 0.403
relative viability (NCI-H1395; first compound 0.2 µM): 0.383
relative viability (IA-LM; first compound 0.002 µM): 0.919
relative viability (IA-LM; first compound 0.006325 µM): 0.785
relative viability (IA-LM; first compound 0.02 µM): 0.816
relative viability (IA-LM; first compound 0.06325 µM): 0.0533
relative viability (IA-LM; first compound 0.2 µM): 0.0667
relative viability (Calu-6; first compound 0.002 µM): 0.652
relative viability (Calu-6; first compound 0.006325 µM): 0.545
relative viability (Calu-6; first compound 0.02 µM): 0.696
relative viability (Calu-6; first compound 0.06325 µM): 0.111
relative viability (Calu-6; first compound 0.2 µM): 0.098
relative viability (HCC-366; first compound 0.002 µM): 0.401
relative viability (HCC-366; first compound 0.006325 µM): 0.345
relative viability (HCC-366; first compound 0.02 µM): 0.424
relative viability (HCC-366; first compound 0.06325 µM): 0.0205
relative viability (HCC-366; first compound 0.2 µM): 0.0254
relative viability (A549; first compound 0.002 µM): 0.282
relative viability (A549; first compound 0.006325 µM): 0.174
relative viability (A549; first compound 0.02 µM): 0.194
relative viability (A549; first compound 0.06325 µM): 0.0387
relative viability (A549; first compound 0.2 µM): 0.0323
relative viability (NCI-H1703; first compound 0.002 µM): 0.401
relative viability (NCI-H1703; first compound 0.006325 µM): 0.358
relative viability (NCI-H1703; first compound 0.02 µM): 0.651
relative viability (NCI-H1703; first compound 0.06325 µM): 0.127
relative viability (NCI-H1703; first compound 0.2 µM): 0.104
relative viability (HCC-78; first compound 0.002 µM): 0.773
relative viability (HCC-78; first compound 0.006325 µM): 0.785
relative viability (HCC-78; first compound 0.02 µM): 0.723
relative viability (HCC-78; first compound 0.06325 µM): 0.643
relative viability (HCC-78; first compound 0.2 µM): 0.32
relative viability (EBC-1; first compound 0.002 µM): 0.794
relative viability (EBC-1; first compound 0.006325 µM): 0.586
relative viability (EBC-1; first compound 0.02 µM): 0.572
relative viability (EBC-1; first compound 0.06325 µM): 0.122
relative viability (EBC-1; first compound 0.2 µM): 0.124
relative viability (LCLC-97TM1; first compound 0.002 µM): 0.421
relative viability (LCLC-97TM1; first compound 0.006325 µM): 0.5
relative viability (LCLC-97TM1; first compound 0.06325 µM): 0.401
relative viability (LCLC-97TM1; first compound 0.2 µM): 0.257
relative viability (NCI-H1648; first compound 0.002 µM): 0.765
relative viability (NCI-H1648; first compound 0.006325 µM): 0.653
relative viability (NCI-H1648; first compound 0.02 µM): 0.784
relative viability (NCI-H1648; first compound 0.06325 µM): 0.505
relative viability (NCI-H1648; first compound 0.2 µM): 0.484
relative viability (NCI-H1299; first compound 0.002 µM): 0.954
relative viability (NCI-H1299; first compound 0.006325 µM): 0.921
relative viability (NCI-H1299; first compound 0.02 µM): 0.959
relative viability (NCI-H1299; first compound 0.06325 µM): 0.467
relative viability (NCI-H1299; first compound 0.2 µM): 0.147
